# BindingDB's records for doi:10.1007/s10822-022-00478-x (Roche Innovation Center Basel, F. Hoffmann-La Roche Ltd., 2022)
# Target: cAMP and cAMP-inhibited cGMP 3',5'-cyclic phosphodiesterase 10A (Homo sapiens, UniProt Q9Y233)
# Test: PDE10A assay
# Summary of the method: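 Scintillation proximity readout of [3H]cGMP hydrolysis (50 nM final substrate, 15 min) by 2 ng/well human PDE10A after 15 min compound preincubation at RT, pH 7.5 with MgCl2. Four-parameter logistic fit gave IC50, reported as pIC50.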
row,IC50 [nM],SMILES
1,4670,"Cc1ccc(C(=O)Nc2ccn3nc(-c4ccccc4)nc3c2)cn1 [Roche-Dataset for PDE10A, Compound 684]"
2,43,"O=C(Nc1ccc(N2CCOCC2=O)cc1)c1nc(C2CC2)ccc1Nc1cncnc1 [Roche-Dataset for PDE10A, Compound 686]"
3,331,"Cc1nc2nc(CCc3nc(-c4ccccc4)cn3C)[nH]c(=O)c2n1C [Roche-Dataset for PDE10A, Compound 687]"
4,787,"Cc1ncc(C)n2nc(/C=C/c3nc(N4CCC[C@H]4CF)nn3C)nc12 [Roche-Dataset for PDE10A, Compound 691]"
5,48,"CC(C)n1ccc(NC(=O)c2nc(C3CC3)ccc2Nc2cncnc2)n1 [Roche-Dataset for PDE10A, Compound 692]"
6,97,"CN(C)C(=O)Cc1cccc(NC(=O)c2nc(C3CC3)cnc2Nc2cncnc2)c1 [Roche-Dataset for PDE10A, Compound 693]"
7,16,"O=C(Nc1cccc(OCC(F)(F)F)c1)c1nc(C2CC2)cnc1Nc1cncnc1 [Roche-Dataset for PDE10A, Compound 694]"
8,21,"O=C(Nc1ccn(C2CCC2)n1)c1nc(C2CC2)ccc1Nc1cncnc1 [Roche-Dataset for PDE10A, Compound 695]"
9,9.84,"O=C(Nc1ccn(CCF)n1)c1nc(C2CC2)ccc1Nc1cncnc1 [Roche-Dataset for PDE10A, Compound 698]"
10,141,"O=C(NCc1ccc2nccnc2c1)c1nc(C2CC2)cnc1Nc1cncnc1 [Roche-Dataset for PDE10A, Compound 699]"
11,1480,"COc1c(C)cnc(CCc2ccc3ccccc3n2)c1C [Roche-Dataset for PDE10A, Compound 701]"
12,13,"O=C(Nc1cccc(N2CCC(O)CC2)c1)c1nc(C2CC2)cnc1Nc1cncnc1 [Roche-Dataset for PDE10A, Compound 703]"
13,7.7,"CNc1nc2cc(NC(=O)c3c(C(=O)N4CCC4)cnn3C)ccn2n1 [Roche-Dataset for PDE10A, Compound 704]"
14,140,"Cc1ncc(O)c2nc(CCc3nc(N4CCCC4)nn3C)nn12 [Roche-Dataset for PDE10A, Compound 705]"
15,4410,"Cn1nc(-c2ccccn2)cc1NC(=O)c1cccn(C)c1=O [Roche-Dataset for PDE10A, Compound 710]"
16,18,"Cn1nc(-c2ccccn2)cc1NC(=O)c1c(Nc2cncnc2)cc[nH]c1=O [Roche-Dataset for PDE10A, Compound 711]"
17,76,"CNC(=O)c1cc2[nH]c(-c3ccccc3)nc2cc1NC(=O)c1cc(C)n(C(C)(C)C)n1 [Roche-Dataset for PDE10A, Compound 713]"
18,84,"Cc1nccc2nc(CCc3nc(N4CCCC4)nn3C)nn12 [Roche-Dataset for PDE10A, Compound 714]"
19,26,"O=C(Nc1ccn(C2CC2)n1)c1nc(C2CC2)ccc1Nc1cncnc1 [Roche-Dataset for PDE10A, Compound 715]"
20,2940,"Cn1cc(-c2ccccc2)nc1COc1cnc(Br)c(C(=O)Nc2cncnc2)n1 [Roche-Dataset for PDE10A, Compound 716]"
21,284,"CCN(C)c1nc2cc(NC(=O)c3c(C(=O)O)cnn3C)ccn2n1 [Roche-Dataset for PDE10A, Compound 717]"
22,148,"O=C(NCc1ccc2c(c1)CCO2)c1nc(C2CC2)cnc1Nc1cncnc1 [Roche-Dataset for PDE10A, Compound 718]"

row,IC50 [nM],SMILES
1,8860,"Cn1ncc(C(=O)N2CCOCC2)c1C(=O)Nc1cn(-c2cccc(C(F)(F)F)n2)cn1 [Roche-Dataset for PDE10A, Compound 719]"
2,177,"Cc1ncc(C)n2nc(/C=C/c3nc(C)n(-c4ccccc4)n3)nc12 [Roche-Dataset for PDE10A, Compound 720]"
3,9.47,"CC(C)Oc1cccc(NC(=O)c2nc(C3CC3)cnc2Nc2cncnc2)c1 [Roche-Dataset for PDE10A, Compound 721]"
4,7590,"CSc1ncc(Br)c(C(=O)Nc2cc(-c3ccccn3)nn2C)n1 [Roche-Dataset for PDE10A, Compound 723]"
5,46,"O=C(Nc1cccc(N2CCCCC2=O)c1)c1nc(C2CC2)cnc1Nc1cncnc1 [Roche-Dataset for PDE10A, Compound 724]"
6,433,"Cc1cnc(C)n2nc(CCc3nc(NCCCCl)nn3C)nc12 [Roche-Dataset for PDE10A, Compound 725]"
7,3340,"Cc1ccc(C)c(C(=O)Nc2cc(-c3ccccn3)nn2C)n1 [Roche-Dataset for PDE10A, Compound 726]"
8,59,"O=C(NCc1cnn(-c2ccccc2)n1)c1nc(C2CC2)cnc1Nc1cncnc1 [Roche-Dataset for PDE10A, Compound 727]"
9,2560,"O=C(NCCN1CCOCC1=O)c1nc(C2CC2)cnc1Nc1cncnc1 [Roche-Dataset for PDE10A, Compound 728]"
10,67,"O=C(Nc1ccnc(C(=O)N2CCCCC2)c1)c1nc(C2CC2)cnc1Nc1cncnc1 [Roche-Dataset for PDE10A, Compound 730]"
11,10000,"Cc1cc(C(=O)Nc2cc3[nH]c(-c4ccccc4)nc3cc2C(F)(F)F)n(C)n1 [Roche-Dataset for PDE10A, Compound 731]"
12,18,"O=C(Nc1ccc(N2CCCC2=O)cc1)c1nc(C2CC2)ccc1Nc1cncnc1 [Roche-Dataset for PDE10A, Compound 733]"
13,8.52,"O=C(Nc1cccc(S(=O)(=O)CCO)c1)c1nc(C2CC2)cnc1Nc1cncnc1 [Roche-Dataset for PDE10A, Compound 734]"
14,71,"CN1CCN(c2cccc(NC(=O)c3nc(C4CC4)cnc3Nc3cncnc3)c2)CC1 [Roche-Dataset for PDE10A, Compound 741]"
15,1630,"CCn1nc(NC(=O)c2c(C(=O)N3CCC3)cnn2C)cc1-c1cccc(Cl)c1 [Roche-Dataset for PDE10A, Compound 744]"
16,6550,"COc1nc2cc(NC(=O)c3c(C(=O)N4CCC4)cnn3C)ccn2n1 [Roche-Dataset for PDE10A, Compound 745]"
17,3450,"O=C(NCCS(=O)(=O)c1ccccc1)c1nc(C2CC2)cnc1Nc1cncnc1 [Roche-Dataset for PDE10A, Compound 746]"
18,1150,"CN(C)C(=O)c1cc(NC(=O)c2nc(C3CC3)ccc2Nc2cncnc2)[nH]n1 [Roche-Dataset for PDE10A, Compound 748]"
19,711,"O=C(N[C@@H]1C[C@H]1c1ccccc1)c1nc(C2CC2)cnc1Nc1cncnc1 [Roche-Dataset for PDE10A, Compound 749]"
20,4500,"O=C(Nc1cc(-c2ccccc2)no1)c1ccc2cc(-c3ccccc3)nn2c1 [Roche-Dataset for PDE10A, Compound 752]"
21,27,"Cc1c(Cl)cc(Cl)c2nc(CCc3cn4c(n3)SCC4)nn12 [Roche-Dataset for PDE10A, Compound 760]"
22,1450,"CCOC(=O)c1cnn(C)c1C(=O)Nc1ccn2nc(C(C)C)nc2c1 [Roche-Dataset for PDE10A, Compound 761]"

row,IC50 [nM],SMILES
1,115,"Cc1c(Cl)cc(C(F)(F)F)c2nc(/C=C/c3nc(Br)nn3C)nn12 [Roche-Dataset for PDE10A, Compound 764]"
2,53,"CCOc1cc(NC(=O)c2nc(C3CC3)cnc2Nc2cncnc2)ccn1 [Roche-Dataset for PDE10A, Compound 765]"
3,976,"CN(C)c1nc2cc(NC(=O)c3c(C(=O)O)cnn3C)ccn2n1 [Roche-Dataset for PDE10A, Compound 768]"
4,6.38,"Cc1nc2ccc(Cl)cc2nc1OCc1nc(-c2ccccc2)cn1C [Roche-Dataset for PDE10A, Compound 769]"
5,10000,"Cc1ncn(C)c1C(=O)Nc1cc(-c2ccccn2)nn1C [Roche-Dataset for PDE10A, Compound 772]"
6,2800,"Cn1nc(-c2ccccn2)cc1NC(=O)c1c(I)cc[nH]c1=O [Roche-Dataset for PDE10A, Compound 774]"
7,13,"CN(C)C(=O)Cc1csc(NC(=O)c2nc(C3CC3)cnc2Nc2cncnc2)n1 [Roche-Dataset for PDE10A, Compound 775]"
8,1680,"COc1ncc(C2CC2)nc1C(=O)Nc1cc(-c2ccccn2)nn1C [Roche-Dataset for PDE10A, Compound 776]"
9,22,"O=C(Nc1cccc(N2CCS(=O)(=O)CC2)c1)c1nc(C2CC2)cnc1Nc1cncnc1 [Roche-Dataset for PDE10A, Compound 777]"
10,10000,"O=C(Nc1ccn2nc(-c3ccccc3)nc2c1)c1ccc(Cl)cn1 [Roche-Dataset for PDE10A, Compound 778]"
11,2070,"O=C(NCCN1CCCC1=O)c1nc(C2CC2)cnc1Nc1cncnc1 [Roche-Dataset for PDE10A, Compound 779]"
12,77,"Clc1ccc2nc(CCc3nc4ccc(Cl)cn4n3)nn2c1 [Roche-Dataset for PDE10A, Compound 780]"
13,3.4,"Cc1ncc(C)n2nc(/C=C/c3nc(N4CCC[C@@H]4C(F)(F)F)nn3C)nc12 [Roche-Dataset for PDE10A, Compound 782]"
14,1060,"O=C(NCc1cc(F)cc(F)c1)c1nc(C2CC2)cnc1Nc1cncnc1 [Roche-Dataset for PDE10A, Compound 783]"
15,360,"Cc1c(Cl)cc(Cl)c2nc(CCc3cn4cccnc4n3)nn12 [Roche-Dataset for PDE10A, Compound 785]"
16,671,"CN(C)C(=O)Cn1cc(NC(=O)c2nc(C3CC3)cnc2Nc2cncnc2)cn1 [Roche-Dataset for PDE10A, Compound 787]"
17,20,"O=C1NCc2ccc(NC(=O)c3nc(C4CC4)ccc3Nc3cncnc3)cc21 [Roche-Dataset for PDE10A, Compound 788]"
18,5.32,"COCc1ccc(Nc2cncnc2)c(C(=O)Nc2cccc(-c3ccn(C)n3)c2)n1 [Roche-Dataset for PDE10A, Compound 790]"
19,916,"Cc1c(Cl)cc(Cl)c2nc(CCc3nc4ncccn4n3)nn12 [Roche-Dataset for PDE10A, Compound 791]"
20,132,"O=C(Nc1cccc(N2CCCC2)c1)c1nc(C2CC2)cnc1Nc1cncnc1 [Roche-Dataset for PDE10A, Compound 793]"
